Test results from paper PMC11591356, “Immunomodulatory Effects of the Tobacco Defensin NaD1” (Antibiotics, 2024).
Ends that are not written are not given here.

Experiments:
[1] = tested on: THP-1-derived macrophages; assay: ELISA assay of cytokine production by THP-1-derived macrophages; assay type: cell-based, human
Protocol: THP-1 (ATCC TIB-202) cells were thawed and cultured in complete RPMI-1640, containing 10% FBS (Capricorn Scientific) and 1×AA solution in CO2-intubator. Monocytic THP-1 cells were differentiated into resting M0 macrophages by stimulation for 24 h with 100 ng/mL phorbol 12-myristate 13-acetate (PMA) in complete RPMI-1640. Then, the attached macrophage-like cells were washed out with culture medium without serum and incubated for another 48 h in PMA-free complete culture medium with 10% HS and 1×AA solution.
THP-1-derived macrophages were seeded into the wells of a 24-well plate at a density of 2.7 × 10^5 cells/well in complete RPMI-1640 with 10% HS and 1×AA solution. Then, 24 h later, the culture medium was replaced by the fresh complete RPMI-1640 containing lipopolysaccharide from Escherichia coli 0111:B4 (LPS, Sigma, St. Louis, MO, USA) or zymosan from the cell wall of Saccharomyces cerevisiae (Serva, Heidelberg, Germany) at concentrations of 1 or 10 μg/mL, respectively; antimicrobial peptides NaD1, Psd1, LL-37 or HBD2 at concentrations of 2 or 0.2 µM; and combinations of antimicrobial peptides with LPS or zymosan at the same concentrations. Insoluble zymosan was resuspended in sterile water and sonicated twice for 30 s; after that, the stock solution was heated to 80 °C for 20 min. Peptides were added 2 h before stimulation with LPS and zymosan. After that, PAMPs solutions were added and the cells were cultured for 24 h. Complete RPMI-1640 only was used in the control wells. Culture supernatants were collected and stored at −70 °C prior to the cytokines’ assessment.
The production of pro- and anti-inflammatory cytokines IL-1β, IL-6, TNF-α and IL-10 by stimulated and non-stimulated THP-1-derived macrophages were estimated by using ELISA kits (Vector-Best, Koltsovo, Russia). Briefly, 96-well plates with adsorbed monoclonal antibodies to the corresponding cytokine were used. Undiluted or diluted 5, 20 or 80 times in the case of IL-10, TNF-α and IL-1β or IL-6, respectively, culture supernatants from the wells of 24-well plates were taken for analysis. Biotinylated polyclonal antibodies to cytokines, streptavidin conjugated to HRP and TMB substrate were further used for the detection of immune complexes. A panel of calibration solutions containing different concentrations of cytokines was used in each experiment. Experiments were performed using two biological and two technical repeats. The release of the cytokines in the control and experimental samples was compared with an unpaired two-sample t-test using GraphPad Prism v.8.0.1 (GraphPad Software, Inc., San Diego, CA, USA). The p values ≤ 0.05 were considered significant.

[2] = tested on: Candida albicans ATCC 18804; assay: Antifungal microdilution assay with or without LPS or zymosan; assay type: cell-based
Protocol: The antifungal assay was performed by the microdilution method using 96-well microplates as described. Briefly, C. albicans ATTC 18804 cells in stock were inoculated onto Sabouraud agar plates with 2% glucose and incubated for 24 h at 37 °C. After replating, cells were inoculated in Sabouraud broth and cultured at 37 °C for 2 h. The cell concentration was determined using a LUNA-II cell counter (Logos Biosystems, Anyang-si, Republic of Korea). Yeast cells in Sabouraud broth diluted to concentration of 4 × 10^4 cells/mL were mixed with equal volumes of serial two-fold dilutions of the peptides in water and the plates were incubated at 30 °C for 24 h. The final peptide concentrations in the wells were 25, 12.5, 6.25, 3.13, 1.56, 0.78 and 0.39 μM. Controls without peptides were also tested. […] Yeast growth was assessed using an inverted light microscope and also by measuring absorbance at 630 nm. The minimum inhibitory concentrations IC50 and MIC were defined as the lowest peptide concentrations inhibiting fungal growth by at least 50 and 100%, respectively. […] The MFCs corresponded to the minimal peptide concentration, in which no colony growth was observed.
To estimate the effects of LPS and zymosan on the antifungal activity of NaD1 and LL-37, these PAMPs were added in culture media at concentrations of 10, 40 and 100 μg/mL [39, 40]. All of the experiments were performed twice in triplicate.

[3] = peptide 2 µM 2 h before LPS 1 μg/mL, 24 h, vs LPS alone
[4] = peptide 2 µM 2 h before zymosan 10 μg/mL, 24 h, vs zymosan alone

## NaD1: Recombinant tobacco floral defensin NaD1 (UNIPROT Q8GTM0), obtained by heterologous expression in E. coli; FITC-labeled in the permeability assay (RECKTESNTFPGICITKPPCRKACISEKFTDGHCSKILRRCLCTKPC; cysteine pairing not given here; also: FITC label; UniProt Q8GTM0 26-72, looked up)
[1]; elevation from 150 (without NaD1)
  IL-10 production by M0 and M1 macrophages: 180 pg/mL
[1]; increase from 4500 (without NaD1)
  IL-1β production by M0 and M1 macrophages: 6500 pg/mL
[1]; [3]
  LPS-induced IL-1β production: increased the LPS-induced production of IL-1β
  LPS-induced IL-10 production: increased the LPS-induced production of IL-10
  LPS-induced TNF-α secretion: reduced the LPS-induced secretion of TNF-α
[1]; [4]
  IL-1β production in the presence of zymosan: induced the production of IL-1β (p <0.0001) more strongly than without this PAMP
  IL-10 production in the presence of zymosan: increased the production of IL-10 in the presence of zymosan
[1]; peptide 2 µM alone, vs unstimulated control
  IL-10 production, unstimulated macrophages: induced the production of IL-10
[1]; peptide 2 µM alone, vs unstimulated control, two biological and two technical repeats
  IL-1β production, unstimulated macrophages: significantly increased IL-1β level
[2]; 10 μg/mL LPS
  IC50: 3.12 to 6.25 µM
  MFC: 12.5 µM
  MIC: 6.25 µM
[2]; 10 μg/mL Zymosan
  IC50: 3.12 to 6.25 µM
  MFC: 12.5 µM
  MIC: 6.25 µM
[2]; 40 μg/mL LPS
  IC50: 3.12 to 6.25 µM
  MFC: 12.5 µM
  MIC: 6.25 µM
[2]; 40 μg/mL Zymosan
  IC50: 3.12 to 6.25 µM
  MFC: 25 µM
  MIC: 6.25 µM
[2]; 100 μg/mL LPS
  IC50: 3.12 to 6.25 µM
  MFC: 12.5 µM
  MIC: 12.5 µM
[2]; 100 μg/mL Zymosan
  IC50: 3.12 to 6.25 µM
  MFC: 25 µM
  MIC: 6.25 µM
[2]; without PAMP, Sabouraud broth, 30 °C, 24 h, 100% growth inhibition
  MIC: 6.25 µM
[2]; without PAMP, Sabouraud broth, 30 °C, 24 h, lowest concentration inhibiting growth by at least 50%, twice in triplicate
  IC50: 3.12 to 6.25 µM
[2]; without PAMP, plating on Sabouraud agar, 37 °C, 24 h, no colony growth
  MFC: 12.5 µM
